Test results as given in patent publication US11959104B2, “Methods of differentiating stem cell-derived ectodermal lineage precursors” (MEMORIAL SLOAN-KETTERING CANCER CENTER, priority 2016, dated 2024).

Experiments:
hPSCs = test: Toxicity of KSR-protocol small molecule concentrations in E6 differentiation; format: cell-based, human; settings: original KSR-protocol concentration used in E6
From the text: To transition these protocols into the more defined E6 media, we adapted hPSCs in E8 for multiple passages and simply replaced the KSR-based medium with an E6 based differentiation while maintaining factors and concentrations as described previously to trigger the 4 major ectodermal lineages (FIG. 9A). […] After determining an optimal non-toxic concentration for each of the small molecules we observed that NE formation under E6 conditions was equivalent to that obtained with KSR-based conditions. […] We compared the efficiency of generating PAX6 positive cells using either no small molecules, using dSMADi or using the single TGFβ inhibitor SB431542 (SB). We found robust PAX6 expression in the absence of dSMADi (˜40% of total cells on day 12 post induction). However, the percentage of cells expressing PAX6 was further improved upon addition of SB or dSMADi to nearly 90% and 80%, respectively (FIGS. 1E and 9B).

rodent GSK3β homologs = settings: cited from earlier work
SIX1 placode cells = test: Trigeminal placode induction by Wnt activation pulse; format: cell-based, human; settings: additional pulse after the BMP pulse
Experimental: (§1) All differentiations starting from E8 were dissociated into single cells using EDTA and replated at high density in E8 with the ROCK inhibitor (Tocris). Cells were typically seeded at a density of 200,000 cells/cm^2 on Matrigel coated dishes. Switching from E8 to E6 triggered differentiations (i.e. d0). Neuroectoderm (NE) formation was generated by culturing the cells in E6 with […] and 500 nM LDN until d12. Neural Crest (NC) was first treated with […], 600 nM CHIR and 1 ng/ml BMP4 from d0-d2. At d2, cells were maintained in […] with 1.5 uM CHIR until d12. Lens placode was first treated with […] and 5 ng/ml BMP4 from d0-d2. At d2, cells were maintained in […] with 100 ng/ml FGF2 until d12. Trigeminal placode was first treated with […] and 5 ng/ml BMP4 from d0-d2. At d2, CHIR was added to the SB and BMP4 until d4. Finally, non-neural ectoderm (NNE) was treated with 10 nM SB, 10 nM SU5402 and 20 ng/ml BMP4 until d12.

hPSC = test: Cranial placode induction in E6 media, SIX1 positive cells, FGF addition; format: cell-based, human; settings: added to E6 culture comprising SB431542 and BMP
Experimental: as §1

[1] = system: Six1::H2B-GFP reporter line; test: LOPAC small molecule screen and validation for enhanced CP induction; settings: CP protocol after the addition of FGF2
Experimental: All differentiations starting from E8 were dissociated into single cells using EDTA and replated at high density in E8 with the ROCK inhibitor (Tocris). Cells were typically seeded at a density of 200,000 cells/cm^2 on Matrigel coated dishes. Switching from E8 to E6 triggered differentiations (i.e. d0). Neuroectoderm (NE) formation was generated by culturing the cells in E6 with 10 nM SB and 500 nM LDN until d12. Neural Crest (NC) was first treated with 10 nM SB, 600 nM CHIR and 1 ng/ml BMP4 from d0-d2. […] Lens placode was first treated with 10 nM SB and 5 ng/ml BMP4 from d0-d2. At d2, cells were maintained in 10 nM SB with 100 ng/ml FGF2 until d12. Trigeminal placode was first treated with 10 nM SB and 5 ng/ml BMP4 from d0-d2. At d2, CHIR was added to the SB and BMP4 until d4. Finally, non-neural ectoderm (NNE) was treated with 10 nM SB, 10 nM SU5402 and 20 ng/ml BMP4 until d12.

[2] = system: human pluripotent stem cells; test: Neuroectoderm induction in E6 media, PAX6 positive cells (PAX6::H2B-GFP reporter); format: cell-based; settings: day 12 post induction, without small molecules ~40%
Experimental: as §1, with “H9 ESCs (WA09) and modified reporter lines (passage 40-70) were cultured in the Knockout Serum Replacement (KSR) (Life Technologies) based media (DMEM-F12, 20% KSR, L-glutamate and 10 ng/ml FGF2) on mouse embryonic fibroblast feeders. KSR hPSCs were directly transferred to the E8 media (Life Technologies) coated with Vitronectin and adapted for 4-5 passages before differentiations were performed. KSR based differentiations were performed as previously described, neuroectoderm and neural crest (Mica et al., 2013), and placode and non-neural ectoderm ([…] et al., 2013). All” for “All”, “At d2, CHIR was added to the SB and BMP4 until d4. Finally, non-neural ectoderm (NNE) was treated with 10 nM SB, 10 nM SU5402 and 20 ng/ml BMP4 until d12.” left out

**Q.** With `Cc1c[nH]c(-c2cnc(NCCNc3ccc(C#N)cn3)nc2-c2ccc(Cl)cc2Cl)n1` [CHIR99021, 6-(2-(4-(2,4-dichlorophenyl)-5-(4-methyl-1H-imidazol-2-yl)pyrimidin-2-ylamino)ethylamino)nicotinonitrile] as the compound, how does the “cell killing during differentiation” value (hPSCs) read?
**A.** The value was “effectively killed the cells”.

**Q.** What about the “IC50 values against rodent GSK3β homologs” value (rodent GSK3β homologs) of the same compound?
**A.** The value was “nanomolar”.

**Q.** What about the “PAX3 expression in SIX1 placode cells” value (SIX1 placode cells) of the same compound?
**A.** The value was “capable of triggering PAX3 expression”.

**Q.** Which “SIX1 positive CP cells” value (hPSC) does the source give for FGF2: activator of FGF signaling here?
**A.** Its value is roughly 50%.

**Q.** What about the Six1 positive cells [1] of the same compound?
**A.** Its Six1 positive cells is 34%.

**Q.** For `NC(=O)c1ccc(-c2nc(-c3ccc4c(c3)OCO4)c(-c3ccccn3)[nH]2)cc1` [SB431542, 4-[4-(1,3-benzodioxol-5-yl)-5-(2-pyridinyl)-1H-imidazol-2-yl]-benzamide], which “percentage of cells expressing PAX6” value [2] is on record?
**A.** The value was roughly 90%.
